Test results reported in the pKa sets of Baltruschat and Czodrowski (2020).

Conditions: acidic group

Going from `C[n+]1c2ccccc2cc2c(N)cccc21` to `[O-][n+]1c2ccccc2[n+](O)c2ccccc21`, the pKa falls from 10 to -1.62.

Compared with `Cc1cccc([P+](c2cccc(C)c2)(c2cccc(C)c2)C2c3ccccc3-c3ccccc32)c1`, `O=C(O)CSC(c1ccccc1)(c1ccccc1)c1ccccc1` is lower in pKa: 9.55 for the first, 4.32 for the second.

First: O=COO
Second: CC(C)(C)OO
The pKa of the first is lower: 7.1 for the first, 12.8 for the second.

First: Oc1ccc2ccccc2[nH+]1
Second: O=C(O)c1ccc2ccccc2c1
The pKa of the first is lower: 0.31 for the first, 4.2 for the second.

Going from `CCOC(=S)S` to `CCOCC(=O)O`, the pKa rises from 1.79 to 3.61.

Going from `O=NCC(=O)c1cccnc1` to `Oc1[nH+]ncc2ccccc12`, the pKa falls from 7.8 to -2.

First: COC(=O)c1ccc(O)cc1
Second: COc1ccc(C(=O)S)cc1
The pKa of the first is higher: 8.34 for the first, 2.79 for the second.

Going from `OC[C@H]1O[C@@H]2NC(=S)O[C@@H]2[C@H]1O` to `O=c1nc([O-])c2ncn([C@H]3O[C@@H](CO)[C@H](O)[C@@H]3O)c2[nH]1`, the pKa rises from 9.48 to 13.

Going from `CC(=O)Nc1nnc(-c2ccccc2)s1` to `O=C(O)CCC(=O)c1ccc(-c2ccccc2)cc1`, the pKa falls from 8.9 to 4.46.

Compared with `Oc1ccccc1C1CCNCCNCCCNCCN1` (stereo unspecified), `[NH3+]CCc1ccccc1O` is lower in pKa: 10.8 for the first, 9.19 for the second.

Going from `Cn1cccc1C(=O)O` to `Cc1ccc(O)c(C(=O)O)c1`, the pKa falls from 4.51 to 3.01.

First: CC(=O)CC(=O)C(F)(F)F
Second: CC(=O)C[N+](=O)[O-]
The pKa of the first is higher: 6.09 for the first, 5.1 for the second.

Compared with `O=c1ccc(O)ccc1O`, `O=c1cccc(O)cc1` is lower in pKa: 6.47 for the first, 5.64 for the second.

Going from `O=[N+]([O-])c1cccc(S(=O)(=O)O)c1` to `O=[N+]([O-])c1cccc(O)c1`, the pKa rises from -7.1 to 8.31.

Going from `O=C([O-])C(CO)[NH2+]Cc1cc([N+](=O)[O-])ccc1O` (stereo unspecified) to `O=C(O)c1cc([N+](=O)[O-])ccc1O`, the pKa falls from 6.15 to 2.15.

Going from `O=C(O)c1cc(Cl)cc([N+](=O)[O-])c1` to `Cc1cc(C(=O)O)ccc1[N+](=O)[O-]`, the pKa rises from 2.17 to 3.65.

First: COc1ccc(-c2nnn[nH]2)cc1
Second: Nc1ccc(-c2nnn[nH]2)cc1
The pKa of the first is lower: 4.23 for the first, 4.55 for the second.

`O=S(O)CCCCc1ccccc1` and `[NH3+][C@@H](Cc1ccccc1)C(=O)O` are within 0.2 log units of each other in pKa: 2.23 for the first, 2.21 for the second.

Compared with `CC(C#N)C(=O)O` (stereo unspecified), `CC(C)CCC([NH3+])C(=O)O` (stereo unspecified) is higher in pKa: 2.37 for the first, 3.06 for the second.

Compared with `Cn1cnc2c(O)[nH+]c(N)nc21`, `Cc1cnc2c(O)cccc2c1C` is higher in pKa: 3.07 for the first, 10.1 for the second.

First: O=C1[N-]C(=S)NC(=O)C1C1C=CCCC1 (stereo unspecified)
Second: O=C1CCC(=O)N1
The pKa of the first is higher: 11.3 for the first, 9.59 for the second.

Compared with `CC(C(N)=O)S(N)(=O)=O` (stereo unspecified), `CC(=O)/C(Cl)=N/O` is lower in pKa: 9.86 for the first, 7.9 for the second.

`C[Si](C)(CCCCl)CCCC(=O)O` and `C[Si](C)(C)CCCCCC(=O)O` are within 0.2 log units of each other in pKa: 4.98 for the first, 5.06 for the second.

First: C[S+](C)CC(=O)c1ccc([N+](=O)[O-])cc1
Second: C=C(C)/C=C(/C(=O)O)c1ccc([N+](=O)[O-])cc1
The pKa of the first is higher: 6.7 for the first, 4.4 for the second.

Compared with `CCOC(=O)c1ccccc1-n1nc(O)c(CC)c1C`, `Cc1[nH]c2ccccc2c1CC(=O)O` is lower in pKa: 12.4 for the first, 4.67 for the second.

First: O=C(Cc1ccccc1)c1cc[n+]([CH-]c2cccc([N+](=O)[O-])c2)cc1
Second: S=C(NCc1ccccc1)c1ccccc1
The pKa of the first is lower: 11.6 for the first, 12.2 for the second.

`O=C(O)[C@@H]1CC[C@H](C(=O)O)C1` and `O=C(O)[C@H]1C[C@@H]1Cl` are within 0.2 log units of each other in pKa: 4.24 for the first, 4.12 for the second.

`O=S(=O)([N-]c1ncccn1)c1ccc(O)cc1` and `Cc1nnc([N-]S(=O)(=O)c2ccc(O)cc2)s1` are within 0.2 log units of each other in pKa: 9 for the first, 8.81 for the second.

Going from `C[N+](C)(C)c1ccc(O)cc1` to `Oc1ccc2ccc(Cl)cc2c1`, the pKa rises from 8.25 to 9.09.

First: OCC(S)C[S-] (stereo unspecified)
Second: N#CC(CCCC(=O)O)c1ccccc1 (stereo unspecified)
The pKa of the first is higher: 10.6 for the first, 4.64 for the second.

First: C[NH+](C)CCCCCCCNC(=O)/C=N/O
Second: O/N=C/C(Cl)=N\O
The pKa of the first is higher: 8.98 for the first, 8.24 for the second.

Going from `O=C(O)[C@@H]1O[C@H](Oc2ccc(Br)cc2)[C@@H](O)[C@H](O)[C@H]1O` to `COc1ccc(C(=O)O)c(C)c1`, the pKa rises from 3.02 to 4.54.

First: O=C(O)/C=C\c1cccc([N+](=O)[O-])c1
Second: O=[N+]([O-])c1cccc(/C=N/O)c1
The pKa of the first is lower: 3.63 for the first, 10.2 for the second.

First: CCCCCCc1c(-c2ccccc2)n[nH]c1O
Second: Oc1cn[nH+]c2ccccc12
The pKa of the first is higher: 8.6 for the first, -0.35 for the second.

Compared with `O=C(O)[C@]12C[NH2+]CC[C@H]1O2`, `CC1CCn2nnnc2C(C(=O)O)C1` (stereo unspecified) is higher in pKa: 2.63 for the first, 3.2 for the second.

First: CC(=O)N1CSC[C@H]1C(=O)O
Second: CC(C)(C)c1ccccc1C(=O)O
The pKa of the first is lower: 2.94 for the first, 3.53 for the second.

Going from `Cc1c(Cl)cc2nnn(O)c2c1[N+](=O)[O-]` to `Cc1ccc(C(=O)NS(=O)(=O)c2ccc(N)cc2)cc1C`, the pKa rises from 3.21 to 4.66.

Going from `N#CC(C#N)=NNc1ccc(/N=N/c2ccccc2)cc1` to `CC1C(=O)c2ccccc2C1=O`, the pKa falls from 7.33 to 6.17.

Compared with `COc1cccc(CN)c1O`, `O=C(O)c1ccc(/C=C/[N+](=O)[O-])cc1` is lower in pKa: 11.1 for the first, 3.94 for the second.

Going from `CCCc1c(C)[nH][n+](C)c1[O-]` to `CC1(C)CC(O)[N+](C)(C)C1` (stereo unspecified), the pKa falls from 10.5 to 8.7.

Going from `CBr` to `FC(F)(F)c1nc2ncncc2[nH]1`, the pKa falls from 15.4 to 5.12.

Work on `O=C1/C(=N\O)CC/C1=N\O` yielded a pKa of 7.95.

In the case of `NC(=O)C(N)=S`, the pKa is reported as 11.5.

Same assay, conditions: basic group

First: Nc1ccc2nc3ccc(N)cc3cc2c1
Second: CCNC[Si](C)(C)C
The pKa of the first is lower: 6.18 for the first, 11.1 for the second.
